Among the test systems are A498; A549; COLO 205; HOP-62; KM12; MCF7; Malme-3M; OVCAR-3; OVCAR-8; PC-3; SF-268; SNB-19; SNB-75; SR; SW-620; TK-10; UACC-257; RPMI-8226; SF-539; HL-60.
What all share (assay): NCI tumour cell line growth inhibition, 48 h

The results in this text go back to ChEMBL document CHEMBL1201862, “PubChem BioAssay data set” (2004).

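Protocol summary: plate cells (96-well), add compound at 5 concentrations, incubate 48 h, interpolate endpoints linearly. The concentration for 50% growth inhibition is given as GI50.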 Active and inactive are the calls of the source. No stated cut-off is given here; in the data, active = GI50 up to about 1.1 µM and inactive = higher.

On to `COC(=O)CCCC(=O)O`, for which the GI50 with A498, with A549, in the assay on COLO 205, in the assay on HOP-62, in the assay with KM12 and with MCF7 was > 100 µM (inactive) each time. Also, the GI50 with Malme-3M, with OVCAR-3, with OVCAR-8, in the assay on PC-3, with SF-268 and in the assay with SNB-19 was > 100 µM (inactive) each time. Besides, the GI50 in the assay with SNB-75, in the assay on SR, with SW-620, in the assay on TK-10 and in the assay on UACC-257 was > 100 µM (inactive) each time.

On to `O=C(O)C1CC2(C1)CC(C(=O)O)C2` (stereo not given), for which the GI50 in the assay on A498, in the assay with A549, in the assay with COLO 205, with HOP-62, in the assay on KM12 and with MCF7 was > 100 µM (inactive) throughout. Besides, the GI50 in the assay on Malme-3M, in the assay on OVCAR-3, in the assay on PC-3, with RPMI-8226, in the assay with SF-539 and in the assay on SNB-19 was > 100 µM (inactive) in each case. Moreover, the GI50 with SNB-75, in the assay with SR, with SW-620, with TK-10 and in the assay on UACC-257 was > 100 µM (inactive) each time.

Consider `O=c1oc2ccc(Cl)cc2cc1-c1cn2ccsc2n1`, for which the GI50 in the assay with A549 is 38.4 µM (inactive); with COLO 205 it was 36.1 µM (inactive); in the assay with HL-60, 32.3 µM (inactive); with HOP-62 it was 46.8 µM (inactive); with KM12, 42.4 µM (inactive); in the assay with MCF7 it was 20.9 µM (inactive). Further, the GI50 in the assay with Malme-3M was > 100 µM (inactive); with OVCAR-3 it was 40 µM (inactive); in the assay with OVCAR-8 it was 29.4 µM (inactive); with PC-3 it was 52.6 µM (inactive); in the assay on RPMI-8226 it was 41.5 µM (inactive); in the assay on SF-268, 46.6 µM (inactive). Moreover, the GI50 in the assay on SF-539 was 98.4 µM (inactive); in the assay on SNB-19, 51.9 µM (inactive); in the assay on SNB-75, > 100 µM (inactive); in the assay on SR, 24.8 µM (inactive); in the assay on SW-620, 59.7 µM (inactive); with TK-10 it was > 100 µM (inactive). Moreover, in the assay with UACC-257, the GI50 is 95.1 µM (inactive).

For the compound `O=C(Nc1ccccc1)c1cc2ccccc2c(/N=N\c2cccc([N+](=O)[O-])c2)c1O`, the GI50 was > 100 µM (inactive) in the assay on A498; > 100 µM (inactive) in the assay on A549; > 100 µM (inactive) with COLO 205; 41.1 µM (inactive) in the assay on HOP-62; > 100 µM (inactive) with KM12; > 100 µM (inactive) in the assay with MCF7. Further, the GI50 was 7.26 µM (inactive) with Malme-3M; > 100 µM (inactive) in the assay on OVCAR-3; 78.2 µM (inactive) in the assay with OVCAR-8; > 100 µM (inactive) with PC-3; 48.6 µM (inactive) with SF-268; 54.8 µM (inactive) with SF-539. Moreover, the GI50 in the assay with SNB-19 was 31 µM (inactive); in the assay on SNB-75 it was 33.5 µM (inactive); in the assay with SR it was 38.2 µM (inactive); in the assay on SW-620, > 100 µM (inactive); in the assay with TK-10 it was > 100 µM (inactive); with UACC-257, > 100 µM (inactive).

Take `CO[P@]1(=O)O[C@@H](c2ccccc2)[C@H](O)[C@@]1(O)c1ccccc1`: the GI50 in the assay on A498, in the assay with A549, in the assay on COLO 205, in the assay on HL-60, in the assay on KM12 and in the assay on MCF7 was > 100 µM (inactive) throughout. Further, the GI50 with Malme-3M, in the assay on OVCAR-3, in the assay with OVCAR-8, in the assay with PC-3, in the assay on SF-539 and in the assay on SNB-19 was > 100 µM (inactive) each time. For the same compound, the GI50 in the assay with SNB-75, in the assay with SR, in the assay with SW-620, in the assay with TK-10 and in the assay with UACC-257 was > 100 µM (inactive) throughout.

Turning to `CCOC(=O)c1c(SC(=O)c2ccc(OC)cc2)n(-c2ccccc2)c(=S)n(-c2ccccc2)c1=O`, the GI50 with A498 is 27.3 µM (inactive); in the assay with A549, > 100 µM (inactive); in the assay on COLO 205, 89.1 µM (inactive); in the assay with HL-60, 40.3 µM (inactive); in the assay on HOP-62, > 100 µM (inactive); in the assay on KM12, > 100 µM (inactive). Also, the GI50 is 30.9 µM (inactive) in the assay on MCF7; > 100 µM (inactive) in the assay on Malme-3M; 50 µM (inactive) in the assay with OVCAR-3; 21.8 µM (inactive) in the assay with OVCAR-8; 59.3 µM (inactive) in the assay on PC-3; 18.6 µM (inactive) in the assay with SF-268. The GI50 was 21.2 µM (inactive) in the assay with SF-539; > 100 µM (inactive) in the assay on SNB-19; > 100 µM (inactive) with SNB-75; 29.9 µM (inactive) in the assay with SR; 26.7 µM (inactive) with SW-620; > 100 µM (inactive) in the assay with TK-10. For the same compound, in the assay with UACC-257, the GI50 is > 100 µM (inactive).

Regarding `CCOC(=O)CSc1[nH]c(NC(=S)Nc2ccccc2)c(C(N)=O)c1C(N)=O`, the GI50 was > 10 µM (inactive) in the assay on A549; > 10 µM (inactive) in the assay with COLO 205; 2.32 µM (inactive) with HL-60; > 10 µM (inactive) in the assay with HOP-62; > 10 µM (inactive) in the assay on KM12; > 10 µM (inactive) in the assay with MCF7. Further, the GI50 with Malme-3M, in the assay on OVCAR-8, with PC-3, in the assay with RPMI-8226, with SF-268 and in the assay on SNB-75 was > 10 µM (inactive) each time. Further, the GI50 with SR was 3.67 µM (inactive); in the assay on SW-620, > 10 µM (inactive); in the assay with TK-10, > 10 µM (inactive); in the assay with UACC-257 it was > 10 µM (inactive).

Regarding `C[C@@H]1C(=O)CC2(O)[C@@]13C[C@@H](OC(=O)[C@@H]3O)[C@@H](C)[C@@]21COC1=O` (stereo not given in full), the GI50 in the assay with A549, in the assay on COLO 205, in the assay with HL-60, with HOP-62, in the assay with KM12 and with MCF7 was > 100 µM (inactive) each time. Moreover, the GI50 in the assay on Malme-3M, in the assay on OVCAR-3, in the assay with OVCAR-8, in the assay with PC-3, in the assay on RPMI-8226 and with SF-268 was > 100 µM (inactive) throughout. For the same compound, the GI50 with SF-539, in the assay on SNB-19, in the assay with SNB-75, with SR, in the assay on SW-620 and in the assay on TK-10 was > 100 µM (inactive) throughout. Further, the GI50 in the assay on UACC-257 is > 100 µM (inactive).

In the case of `O=C(Nc1ccccn1)/C(=C\C(=O)c1ccc(Cl)cc1)Nc1ccccc1`, the GI50 in the assay on A549, with COLO 205, with HL-60, with HOP-62, in the assay with KM12 and in the assay with MCF7 was > 10 µM (inactive) throughout. Besides, the GI50 in the assay on Malme-3M is > 10 µM (inactive); with OVCAR-8, > 10 µM (inactive); in the assay on PC-3, > 10 µM (inactive); in the assay with RPMI-8226 it was > 10 µM (inactive); with SF-268, > 10 µM (inactive); in the assay on SNB-75, 5.68 µM (inactive). Further, the GI50 with SR, in the assay on SW-620, in the assay on TK-10 and with UACC-257 was > 10 µM (inactive) in each case.

Take `CCOC(=O)NC(C(=O)OCC)C(F)(F)F` (stereo not given): the GI50 in the assay on A549 was > 100 µM (inactive); in the assay with COLO 205, > 100 µM (inactive); with HL-60 it was 23.9 µM (inactive); with HOP-62, > 100 µM (inactive); in the assay on KM12, > 100 µM (inactive); in the assay on MCF7 it was > 100 µM (inactive). Besides, the GI50 was > 100 µM (inactive) in the assay with Malme-3M; > 100 µM (inactive) with OVCAR-3; > 100 µM (inactive) in the assay with OVCAR-8; > 100 µM (inactive) in the assay with PC-3; 57 µM (inactive) in the assay with RPMI-8226; > 100 µM (inactive) in the assay with SF-268. Further, the GI50 with SF-539 is 37.4 µM (inactive); with SNB-19, > 100 µM (inactive); in the assay on SNB-75 it was > 100 µM (inactive); in the assay with SR, 48.4 µM (inactive); in the assay on SW-620 it was > 100 µM (inactive); with TK-10, > 100 µM (inactive). The GI50 in the assay on UACC-257 was > 100 µM (inactive).

`COc1ccc2c(c1)CCc1c-2n(CCN2CCOCC2)c2ccc(OC)cc12`: the GI50 was > 100 µM (inactive) with A498; 60.3 µM (inactive) in the assay with A549; 32.8 µM (inactive) in the assay on COLO 205; > 100 µM (inactive) in the assay on HOP-62; 18.8 µM (inactive) with KM12; 85.5 µM (inactive) in the assay with MCF7. Besides, the GI50 in the assay with Malme-3M was 75.2 µM (inactive); in the assay on OVCAR-3, > 100 µM (inactive); in the assay with OVCAR-8, > 100 µM (inactive); in the assay on PC-3 it was 63.2 µM (inactive); with RPMI-8226 it was 63.5 µM (inactive); with SF-268 it was > 100 µM (inactive). The GI50 with SF-539 was > 100 µM (inactive); in the assay with SNB-75, 0.0515 µM (active); with SR it was 10.5 µM (inactive); in the assay on SW-620, 48.8 µM (inactive); in the assay with TK-10, > 100 µM (inactive); in the assay on UACC-257, > 100 µM (inactive).
